In patent US3960862A, “1,3-Diazacycloalkeno-[1,2,d]-benzo-[f-]-1,3,4-thiadiazepines” (BASF Aktiengesellschaft, priority 1973, dated 1976):

Legend:
[1] = test system: central nervous system; assay: behavior of animals treated with the compound; parameters: species or system mice; conditions: mouse, in vivo
[2] = test system: phenylquinone-induced writhing reactions in mice; assay: writhing test on mice (phenylquinone i.p.), peroral application; type: in vivo; conditions: for ΣR x ± sx (frequency of writhing reactions) / % effect (Decrease in the writhing reactions): n = 10, mice
Description: In this test p-benzoquinone (phenylquinone) in a 0.02% aqueous solution in a volume of 10 ml/kg of body weight i.p. serves to initiate pain. The typical writhing reactions which occur after a certain latency period are recorded in their frequency; decrease in the writhing frequency is evaluated as analgesic effect. The following Table indicates the numerical connection between dosage and effect after peroral application of the active ingredient.
^o T-test for independent random samples, bilateral questioning, significant down to 0.05, below 0.001 not given. n = number of test animals. The values are mean values ± mean error of the mean value.

[3] = pharmacological screening (blood pressure, sympathomimetric and central nervous system effects; analgesic, spasmolytic, anti-inflammatory, broncholytic properties); conditions: in vivo
[4] = effective dose compared with range of toxic doses; conditions: in vivo

Row | Structure (SMILES) | behavior of treated animals [1] | ΣR x ± sx (frequency of writhing reactions) ([2]; 4.64 mg/kg peroral) | % effect (Decrease in the writhing reactions) ([2]; 4.64 mg/kg peroral, P <0.02) | ΣR x ± sx (frequency of writhing reactions) ([2]; 10 mg/kg peroral) | % effect (Decrease in the writhing reactions) ([2]; 10 mg/kg peroral, P <0.002) | ΣR x ± sx (frequency of writhing reactions) ([2]; 21.5 mg/kg peroral) | % effect (Decrease in the writhing reactions) ([2]; 21.5 mg/kg peroral, P <0.001) | ΣR x ± sx (frequency of writhing reactions) ([2]; 46.4 mg/kg peroral) | % effect (Decrease in the writhing reactions) ([2]; 46.4 mg/kg peroral, P <0.001) | ΣR x ± sx (frequency of writhing reactions) ([2]; 100 mg/kg peroral) | % effect (Decrease in the writhing reactions) ([2]; 100 mg/kg peroral, P <0.001) | ΣR x ± sx (frequency of writhing reactions) ([2]; 215 mg/kg peroral) | % effect (Decrease in the writhing reactions) ([2]; 215 mg/kg peroral, P <0.001) | ED50 ([2]; Mus musculus, po, peroral application, mice, from regression line) | pharmacological effect, particularly analgesic properties [3] | effective dose relative to toxic doses [4]
1 | O=[N+]([O-])c1cccc(C2=NN3CCCN=C3c3ccccc3S2)c1 [Example 18, Tetrahydropyrimidino-[1,2-d]-benzo-[f]-2-(3-nitrophenyl)-1,3,4-thiadiazepine] | consistent with a central nervous system depressant action | 14.7 ± 2.1 | 28.1 ± 10.3% | 12.7 ± 2.4 | 37.9 ± 11.8% | 10.4 ± 1.9 | 49.1 ± 9.4% | 8.9 ± 1.5 | 56.5 ± 7.2% | 6.2 ± 1.7 | 69.7 ± 8.4% | 0.8 ± 0.8 | 96.1 ± 3.9% | 21.6 mg/kg | singled out for their pharmacological effect, particularly their analgesic properties | much below the range of toxic doses
2 | O=[N+]([O-])c1cccc(C2=NN3CCN=C3c3ccccc3S2)c1 [Example 4, Imidazolino-[1,2-d]-benzo-[f]-2-(3-nitrophenyl)-1,3,4-thiadiazepine] | – | – | – | – | – | – | – | – | – | – | – | – | – | – | singled out for their pharmacological effect, particularly their analgesic properties | –
